In PMC3627359 (Journal of medicinal chemistry, 2013):
Where two headings read alike, the source gives them in different places.

Key:
[1] = In vitro microsomal stability; format: in vitro ADME; details: Human microsomes, data from Apredica
[2] = In vitro microsomal stability; format: in vitro ADME; details: Mouse microsomes, data from Apredica
[3] = In vitro Caco-2 permeability; format: in vitro ADME; details: human
[4] = cited from earlier work
cortical neurons = assay: Primary cortical neuron protection assay; format: cell-based
[5] = system: PC12 cells expressing G93A SOD1; assay: Mutant SOD1-induced cytotoxicity protection assay; format: cell-based

NADPH-absent CLint (microsomal intrinsic clearance) [1] [mL/min/kg]	NADPH-dependent CLint (microsomal intrinsic clearance) [1] [mL/min/kg]	NADPH-absent CLint (microsomal intrinsic clearance) [2] [mL/min/kg]	NADPH-dependent CLint (microsomal intrinsic clearance) [2] [mL/min/kg]	Compound	also measured
13	25	21	64	O=c1cc(COc2cc(Cl)cc(Cl)c2)[nH][nH]1 [Compound 1]	efflux ratio [3]: 0.4; AUC/dose ([4]; i.v. administration): 184 ng*h/mL/dose; PK half-life ([4]; in vivo PK): 3.6 h; AUC/dose ([4]; p.o. administration): 50 ng*h/mL/dose; Oral bioavailability ([4]; p.o. vs i.v.): 27%
0	24	23	78	O=c1cc(CNc2cc(Cl)cc(Cl)c2)[nH][nH]1 [Compound 2, 5-((3,5-Dichlorophenylamino)methyl)-1H-pyrazol-3(2H)-one]	–
0	0	0	93	CN(Cc1cc(=O)[nH][nH]1)c1cc(Cl)cc(Cl)c1 [Compound 3, 5-(((3,5-Dichlorophenyl)(methyl)amino)methyl)-1H-pyrazol-3(2H)-one]	Neuronal activity recovered (cortical neurons; 10 μM concentration): 100%
–	–	–	–	CN(CCCc1cc(=O)[nH][nH]1)c1cc(Cl)cc(Cl)c1 [Compound 24, 5-(3-((3,5-Dichlorophenyl)(methyl)amino)propyl)-1H-pyrazol-3(2H)-one]	Activity with cortical neurons (cortical neurons): not active
–	–	–	–	O=c1[nH][nH]c2c1CN(c1cc(Cl)cc(Cl)c1)CC2 [Compound 27, 5-(3,5-Dichlorophenyl)-4,5,6,7-tetrahydro-1H-pyrazolo[4,3-c]pyridin-3(2H)-one]	Activity with cortical neurons (cortical neurons): not active
–	–	–	–	CN(Cc1cc(=O)n(Cc2ccccc2)[nH]1)c1cc(Cl)cc(Cl)c1 [Compound 29, 2-Benzyl-5-(((3,5-dichlorophenyl)(methyl)amino)methyl)-1H-pyrazol-3(2H)-one]	Activity in the PC12 assay [5]: comparable in activity to parent compound 3
–	–	–	–	CN(Cc1cc(=O)n(C)[nH]1)c1cc(Cl)cc(Cl)c1 [Compound 30, 5-(((3,5-Dichlorophenyl)(methyl)amino)methyl)-2-methyl-1H-pyrazol-3(2H)-one]	Activity in the PC12 assay [5]: comparable in activity to parent compound 3
